Measurements published in patent US6455518B2 (Novartis AG, priority 1996, dated 2002).

Tests used:
heart allograft = assay: heterotopic heart allotransplantation model (DA donor, Lewis recipient); type: in vivo, rat
Excerpt: The abdomen is then palpated daily to determine if the graft is still beating; in case of cessation of heartbeat, the experiment is terminated.
(§1) In both the kidney and heart allograft experiments, the termination point in long term survivors is 100 days. In all cases, the graft is removed at autopsy, fixed in buffered formalin, and embedded in paraffin. Four micron thick sections stained with hematoxylin and eosin are read for signs of rejection and scored as “no rejection”, or “marginal”, “slight”, “moderate”, or “severe” cellular rejection based on the extent of mononuclear cell infiltration and damage to the parenchyma (tubules in the kidney, myocytes in the heart).

[1] = rat, in vivo, iv
Protocol: Whole blood concentrations of both compounds are determined by liquid chromatography-reversed isotope dilution (LC-RID).

[2] = test system: Spleen cells of BALB/c and CBA mice; assay: two-way mouse mixed lymphocyte reaction (3H-thymidine incorporation); type: cell-based; conditions: single compound; 3H-thymidine incorporation after four days culture
Protocol: After four days, ^3H-thymidine is added. Sixteen hours later, the cells are harvested and ^3H-thymidine incorporation is measured by liquid scintillation counting. Cell proliferation is assessed in the absence of compounds (100% value) or in the presence of serially diluted compounds or combinations of compounds. The maximum ^3H thymidine incorporation (100% value) is around 240×10^3 cpm, and the background ^3H-thymidine incorporation in unstimulated cells is around 5×10^3 cpm. […] These IC70 values are converted into relative units with regard to the IC70 value of the respective single drug treatment.

kidney allograft = assay: orthotopic kidney allotransplantation model (DA donor, Lewis recipient); type: in vivo, rat; conditions: for Histology of rejection: kidney
Excerpt: Kidney transplantation is followed by contralateral nephrectomy 7 days later: at nephrectomy, the graft is macroscopically inspected, and if rejection is macroscopically evident, the experiment is terminated. Surviving animals are monitored daily for clinical signs of renal dysfunction.
as §1

[3] = heart, 40-O-(2-hydroxyethyl)-rapamycin 5.0 mg/kg daily oral

For `CO[C@H]1C[C@@H]2CC[C@@H](C)[C@@](O)(O2)C(=O)C(=O)N2CCCC[C@H]2C(=O)O[C@H]([C@H](C)C[C@@H]2CC[C@@H](OCCO)[C@H](OC)C2)CC(=O)[C@H](C)/C=C(\C)[C@@H](O)[C@@H](OC)C(=O)[C@H](C)C[C@H](C)/C=C/C=C/C=C/1C` [40-O-(2-hydroxyethyl)-rapamycin], the “minimum effective dose giving long term allograft survival” value (heart allograft; heart allograft, single compound treatment, daily oral) was > 5.0 mg/kg, the Histology of rejection (heart allograft; heart, 40-O-(2-hydroxyethyl)-rapamycin 1.0 mg/kg daily oral) was “severe” and the Histology of rejection (heart allograft; heart, 40-O-(2-hydroxyethyl)-rapamycin 2.5 mg/kg daily oral) was “moderate”. The Histology of rejection (heart allograft; [3]) was “moderate”, the “Survival (days)” value (heart allograft; [3]) was 22,23 days and the CL [1] was 3.2 ± 0.3 mL/min. For the same molecule, the t1/2 [1] was 56 ± 7 h, the V ([1]; 1 mg/kg) was 52 ± 3 L/kg and the “IC70 (concentration at which the maximum proliferative response is inhibited by 70%)” value [2] was 0.3 nM. The “minimum effective dose giving long term allograft survival” value (kidney allograft; kidney allograft, single compound treatment, daily oral) was 5.0 mg/kg, the Histology of rejection (kidney allograft; 40-O-(2-hydroxyethyl)-rapamycin 1.0 mg/kg daily oral) was “moderate-severe” and the Histology of rejection (kidney allograft; 40-O-(2-hydroxyethyl)-rapamycin 2.5 mg/kg daily oral) was “slight-moderate”. For the same molecule, the Histology of rejection (kidney allograft; 40-O-(2-hydroxyethyl)-rapamycin 5.0 mg/kg daily oral) was “moderate; ≧100 marginal”.
